One block for each compound: values may come before it.
What was measured:
[1] = test system: CK2-like activity in Arabidopsis whole-cell extracts; assay: In vitro kinase assay: phosphorylation of GST-CCA1 by Arabidopsis whole-cell extracts; assay type: biochemical; conditions: 10 mM inhibitor, 160 μg WCE, [γ-32P]ATP, 30° C. 30 min
Experimental: (§1) GST (lanes 1 and 4) or GST-CCA1 (lanes 2, 3, 5-7) were incubated with 160 μg of WCE in the absence (lanes 1, 2, 4, and 5) or presence (lane 3) of 10 mM 2,3-diphosphoglycerate (D. G.), with recombinant CK2 (rCK2) in the absence (lane 6) or presence of 10 mM 2,3-diphosphoglycerate (lane 7) together with [γ-^32P]ATP (lanes 1-3, 6, and 7) or [γ-^32P]GTP (lanes 4 and 5). The arrow indicates the position of the full-length GST-CCA1 protein.
(§2) GST-CCA1 bound to glutathione-agarose beads was resuspended in 50 μl of CK2 buffer (50 mM Tris-HCl, pH 7.5, 10 mM MgCl2, 100 mM NaCl, 1 mM DTT. 0.1 mM ATP or GTP) in the presence of 5-10 μCi of [γ-^32P]ATP or GTP. The reaction was started by adding CK2 or whole-cell extracts (WCE) and incubating samples at 30° C. for 30 min. WCE were prepared as described previously (3) except that the phosphatase inhibitor cocktail (5 mM NH4VO3, 0.2 mM ammonium molybdate, 1 mM EGTA, 50 mM NaF) was added to extraction buffer. The beads were washed with phosphate-buffered saline (PBS) containing 1% Triton X-100 and resuspended in 1X SDS-PAGE sample buffer. The phosphorylated samples were separated by 10% SDS-PAGE. ^32P-labeled bands were detected by autoradiography and quantitated with a PhosphorImager.
(§3) We next examined whether plants contain a CK2-like protein kinase activity that can phosphorylate CCA1 in vitro. […]

CK1 and CK2 = conditions: cited from earlier work
recombinant CK2 = assay: In vitro kinase assay: phosphorylation of GST-CCA1 by recombinant CK2; assay type: biochemical, Arabidopsis; conditions: 10 mM inhibitor, recombinant CK2, [γ-32P]ATP
Experimental: as §1, §2, §3

[2] = test system: major DNA-protein complex containing CCA1; assay: EMSA: formation of the DNA-protein complex containing CCA1 in plant whole-cell extracts (A2 fragment of Lhcb1*3); assay type: biochemical, Arabidopsis; conditions: WCE preincubated 45 min at 30° C.
Experimental: WCE were incubated in the absence (lane 1) or presence (lane 2) of λ protein phosphatase (200 units added to 200 μl) for 30 min at 30° C. […] WCE from wild type (WT) and a CCA1-ox line (CCA1-ox) (7) grown in 12:12 photoperiods were used in the EMSA. […] WCE were incubated with the indicated inhibitor for 45 min at 30° C. Lane 1, no inhibitors; lane 2, 5 mM 2,3-diphosphoglycerate (D.G.); lane 3, 100 μM quercetin. Arrows indicate the position of the major DNA-protein complex containing CCA1.
CCA1 was incubated with 0.1 ng of end-labeled A2 fragment of the Arabidopsis Lhcb 1*3 gene (56) in the presence of 0.5 μg of poly(dI-dC) at 25° C. for 15 min. WCE were incubated in preincubation buffer (50 mM Tris-HCl, pH 7.5, 2 mM MnCl2, 5 mM DTT, 0.1 mM EDTA, 0.01% Brij 35) at 30° C. for 45 min, then incubated with the A2 probe in the presence of 1 μg of poly(dI-dC). The EMSA buffer and electrophoresis conditions have been described (56). DNA-protein complexes were detected by autoradiography.
The A2 fragment used as a probe includes known binding sites for G-box and CAAT binding proteins (56). […] Further evidence that the marked complex contains CCA1 includes the observations (data not shown) that this complex is absent in extracts prepared from CCA1-null mutant plants and that addition of anti-CCA1 antibodies inhibits its formation. […]

- reduction of phosphorylation of CCA1 (recombinant CK2): 77%
Compound: 2,3-diphosphoglycerate
- reduction of incorporation of ATP into GST-CCA1 [1]: 63%
- kinase inhibition specificity (CK1 and CK2): inhibits both CK1 and CK2
- formation of the DNA-protein complex containing CCA1 ([2]; 5 mM inhibitor): abolished

Compound: O=c1c(O)c(-c2ccc(O)c(O)c2)oc2cc(O)cc(O)c12 [quercetin]
- kinase inhibition specificity (CK1 and CK2): specific to CK2
- formation of the DNA-protein complex containing CCA1 ([2]; 100 μM inhibitor): abolished

Reference: patent publication US6727407B1, “NUCLEIC ACIDS ENCODING THE ARABIDOPSIS PROTEIN KINASE β-SUBUNIT CKB3 AND A METHOD OF ALTERING CIRCADIAN RHYTHMS AND FLOWERING IN A PLANT BY TRANFORMING WITH A NUCLEIC ACID ENCODING A PROTEIN KINASE β-SUBUNIT” (Regents of the University of California, priority 1998, dated 2004)
